Results taken from patent US8809344B2, “Compounds, compositions, and methods for control of hepatitis C viral infections” (priority 2008, dated 2014).
pEC50: −log10 of the molar value.

Assays:
[1] = system: genotype 1b (Con1 strain) replicon with silent mutation at amino acid 1771; experiment: Silent-mutation reporter replicon IVT RNA in Huh7.5 cells; type: cell-based; details: Hepatitis C virus
From the text: (§1) To identify nucleotide changes that confer resistance to 80978, replicon RNA was reverse transcribed and amplified from total RNA extracted from 80978-resistant and control Clone A cells. […] One silent mutation at amino acid 1771 was also observed. Each mutation was introduced independently into a stable genotype 1b (Con1 strain) subgenomic reporter replicon plasmid via site-directed mutagenesis. […] The sequence of the wild type NS4B encoding sequence is provided as SEQ ID NO:1, the sequence of the mutated NS4B nucleotide sequence encoding the F1809V mutation is provided as SEQ ID NO:3, and the sequence of the mutated NS4B nucleotide sequence encoding the F1809L mutation is provided as SEQ ID NO:5. The sequence of the wild type NS4B protein is provided as SEQ ID NO:2, the sequence of the mutated NS4B protein with the F1809V mutation is provided as SEQ ID NO:4, and the sequence of the mutated NS4B nucleotide sequence encoding the F1809L mutation is provided as SEQ ID NO:6. […] A differential response was observed between cells electroporated with different replicon RNAs.

[2] = system: genotype 1b (Con1 strain) subgenomic replicon in 80978-resistant Clone A cells; experiment: 80978-resistant Clone A cells, HCV RNA by quantitative RT-PCR; type: cell-based; details: Hepatitis C virus, 72 h
Description: In an effort to gain insight into the target of 80978, Clone A cells were selected for resistance to 80978. Clone A cells are a human hepatoma cell line that contains a stable genotype 1b (Con1 strain) subgenomic replicon. Cells were cultured for 12 days in medium containing 10 μM 80978 and 1 mg/ml Geneticin™ (Invitrogen). Medium was changed every 3-4 days to replenish compound, and cells were split as needed to maintain subconfluent cultures. After 12 days of growth in the presence of 10 μM 80978, the concentration of 80978 was increased to 20 μM and cultured for an additional 19 days. Control Clone A cells were grown in parallel in the presence of diluent only. After this culture period, cells were evaluated for response to 80978.
Control cells and cells that had been cultured in the presence of 80978 were treated in triplicate with 3-fold serial dilutions of compound for 72 hours. At the end of this incubation period, total RNA was extracted, and HCV RNA levels were measured by quantitative RT-PCR using primers that recognize the 3′NTR.

[3] = system: genotype 2a replicon encoding genotype 1b NS4B amino acids 53-254; experiment: Chimeric genotype 1b/2a replicon (NS4B aa 53-254 from 1b) in Huh7.5 cells; type: cell-based, hepatitis C virus
From the text: That NS4B is the target of 80978 was confirmed by a complementary approach. The differential response to 80978 by HCV genotype 1b and 2a replicons allowed the use of chimeric replicons to narrow down the region of the HCV genotype 1b NS4B coding region that confers sensitivity to 80978. The nucleotide sequence of the wild type HCV genotype 2a NS4B is provided as SEQ ID NO: 7 and the wild type HCV genotype 2a NS4B protein sequence is provided as SEQ ID NO:8. Using a plasmid containing an 80978-resistant stable HCV genotype 2a subgenomic reporter replicon cDNA, six replacement, or chimeric constructs were made, where the regions encoding the following amino acids of NS4B were replaced with the regions encoding the corresponding amino acids of NS4B from HCV genotype 1b: (i) 7-254, (ii) 7-52, (iii) 53-254, (iv) 219-254, (v) 7-52 and 219-254, and (vi) 53 to 218. The full-length NS4B protein is 261 amino acids in length and is provided as SEQ ID NO:2. Thus, if any of these segments of NS4B from genotype 1b are sufficient to confer 80978-sensitivity to a genotype 2a HCV replicon, it will render the chimeric genotype 1b/genotype 2a replicon sensitive to the compound.
Response to 80978 was measured initially in unselected cells. […] All of the chimeric and wild type control constructs were responsive to Cyclosporin A (CsA).

[4] = system: replicon RNA from 80978-resistant and control Clone A cells in Huh7b cells; experiment: Sensitivity of Huh7b cells electroporated with total RNA from resistant or control Clone A cells; type: cell-based, hepatitis C virus
From the text: To determine whether resistance was replicon-associated, total RNA was extracted from 80978-resistant and control cells and re-introduced via electroporation into naïve Huh7b cells, the parental cell line of Clone A cells. Electroporated cells that harbored replicon were selected with Geneticin™, pooled, and assayed for sensitivity to 80978.

[5] = system: parental genotype 1b (Con1 strain) subgenomic reporter replicon; experiment: Parental genotype 1b reporter replicon IVT RNA in Huh7.5 cells; type: cell-based; details: Hepatitis C virus
From the text: as §1

[6] = system: stable genotype 1b subgenomic replicon (Con1 strain); experiment: Clone II cells, HCV RNA by blot hybridization normalized to β-actin RNA; type: cell-based; details: Hepatitis C virus, 72 h
Description: Inhibition of HCV replication by compound AP0080978 (enantiomer 2 from Example 1) was also assayed by exposing cells harboring either HCV genotype 1a, HCV genotype 1b, HCV genotype 2a replicons. […] Final DMSO percentage was 1% in a total volume of 1 ml. After a 72 hour treatment period, total RNA was extracted, quantified via RiboGreen™ assay (Invitrogen-Molecular Probes, Eugene, Oreg., USA), and equivalent amounts of RNA were subjected to quantitative RT-PCR to quantify HCV RNA levels. Activity against genotype 1b was re-confirmed using Clone II cells (U.S. Pat. No. 7,049,428) that contain a stable subgenomic replicon (Con1 strain) with a Arg 1164 Gly adaptive mutation that is distinct from the Ser 1179 Ile adaptive mutation present in Clone VI cells. In this assay, cells were seeded into 96-well plates and treated in quadruplicate with varying concentration of compounds for 72 hours. For each replicate culture, HCV RNA levels were measured by blot hybridization and normalized to β-actin RNA levels. Cytotoxicity was measured using an established neutral red dye uptake assay (Korba and Gerin (1992) Antiviral Res 19:55; Okuse et al (2005) Antiviral Res 65: 23). […] Activity and toxicity against genotype 2a was evaluated in Huh7 cells harboring a stable hRluc-containing subgenomic genotype 2a replicon containing sequence from both J6 and JFH1 strains. […]

With `O=C(NCc1cccs1)c1nn2c(c1Cl)N[C@H](c1ccco1)C[C@@H]2C(F)(F)F` (single isomer, unassigned) [Compound 80978] the pEC50 [1] was 6.62, the pEC50 [2] was less than 4.60 and the “response to 80978” value ([3]; Geneticin-selected stable replicon-containing cells, amino acids 53-254) was “responsive”. For the same molecule, the pEC50 ([3]; Hepatitis C virus, Huh7.5) was greater than 5.60, the “sensitivity to 80978” value ([4]; Huh7b cells electroporated with total RNA from 80978-resistant cells) was “maintained resistance” and the “sensitivity to 80978” value ([4]; Huh7b cells electroporated with total RNA from control cells) was “sensitive”. The pEC50 [5] was 6.54 and the pEC50 [6] was 5.14.
